Columns and labels:
[1] = organism: Rattus norvegicus; experiment: Displacement of [3H]GABA from GABA receptor in rat cerebral cortex at 10 uM after 60 mins by scintillation counting; assay type: tissue-based
[2] = target: Type-1 angiotensin II receptor (Homo sapiens) (UniProt P30556); experiment: Displacement of [125I][Sar1,Ile8]-AT-2 from human recombinant AT1 receptor expressed in HEK293 cells at 10 uM after 120 mins by scintillation counting; assay type: cell-based
[3] = target: Nociceptin receptor (Homo sapiens) (UniProt P41146); experiment: Displacement of [3H]nociceptin from human recombinant NOP receptor expressed in HEK293 cells at 10 uM after 60 mins by scintillation counting; assay type: cell-based
[4] = target: Type-2 angiotensin II receptor (Homo sapiens) (UniProt P50052); experiment: Displacement of [125I]CGP 42112A from human recombinant AT2 receptor expressed in HEK293 cells at 10 uM after 4 hrs by scintillation counting; assay type: cell-based
[5] = target: Neurotensin receptor type 1 (Homo sapiens) (UniProt P30989); experiment: Displacement of [125I]Tyr3-neurotensin from human recombinant NTS1 receptor expressed in CHO cells at 10 uM after 60 mins by scintillation counting; assay type: cell-based
[6] = target: Adenosine receptor A2a (Homo sapiens) (UniProt P29274); experiment: Displacement of [3H]CGS 21680 from human adenosine A2A receptor expressed in HEK293 cells at 10 uM after 120 mins by scintillation counting
[7] = target: B2 bradykinin receptor (Homo sapiens) (UniProt P30411); experiment: Displacement of [3H]bradykinin from human recombinant bradykinin B2 receptor expressed in CHO cells at 10 uM after 60 mins by scintillation counting; assay type: cell-based
[8] = target: D(2) dopamine receptor (Homo sapiens) (UniProt P14416); experiment: Displacement of [3H]methyl-spiperone from human recombinant D2S receptor expressed in HEK293 cells at 10 uM after 60 mins by scintillation counting; assay type: cell-based
[9] = target: Cholecystokinin receptor type A (Homo sapiens) (UniProt P32238); experiment: Displacement of [125I]CCK-8s from human recombinant CCK1 receptor expressed in CHO cells at 10 uM after 60 mins by scintillation counting; assay type: cell-based
[10] = target: Adenosine receptor A3 (Homo sapiens) (UniProt P0DMS8); experiment: Displacement of [125I]AB-MECA from human recombinant A3 receptor expressed in HEK293 cells at 10 uM after 120 mins by scintillation counting; assay type: cell-based
[11] = Metabolic stability in rat liver microsomes; assay type: ADME, Microsome; conditions: read-out: Stability
[12] = target: Thromboxane A2 receptor (Homo sapiens) (UniProt P21731); experiment: Displacement of [3H]SQ29548 from human recombinant TP receptor expressed in HEK293 cells at 10 uM after 60 mins by scintillation counting; assay type: cell-based
[13] = target: Muscarinic acetylcholine receptor M4 (Homo sapiens) (UniProt P08173); experiment: Displacement of [3H]4-DAMP from human recombinant muscarinic M4 receptor expressed in CHO cells at 10 uM after 60 mins by scintillation counting; assay type: cell-based
[14] = target: 5-hydroxytryptamine receptor 6 (Homo sapiens) (UniProt P50406); experiment: Displacement of [3H]LSD from human recombinant 5HT6 receptor expressed in CHO cells at 10 uM after 120 mins by scintillation counting; assay type: cell-based
[15] = tested on: CHO; experiment: Displacement of [3H]DADLE from human recombinant delta2 opioid receptor expressed in CHO cells at 10 uM after 120 mins by scintillation counting; assay type: cell-based
[16] = target: Melatonin receptor type 1A (Homo sapiens) (UniProt P48039); experiment: Displacement of [125I]2-iodomelatonin from human recombinant MT1 receptor expressed in CHO cells at 10 uM after 60 mins by scintillation counting; assay type: cell-based
[17] = organism: Rattus norvegicus; experiment: Displacement of [125I][Tyr4]bombesin from Bombesin receptor in rat cerebral cortex at 10 uM after 60 mins by scintillation counting; assay type: tissue-based
[18] = target: 5-hydroxytryptamine receptor 2A (Homo sapiens) (UniProt P28223); experiment: Displacement of [3H]ketanserin from human recombinant 5HT2A receptor expressed in HEK293 cells at 10 uM after 60 mins by scintillation counting; assay type: cell-based
[19] = target: Endothelin receptor type B (Homo sapiens) (UniProt P24530); experiment: Displacement of [125I]endothelin-1 from human recombinant ETB receptor expressed in CHO cells at 10 uM after 120 mins by scintillation counting; assay type: cell-based
[20] = target: Adrenergic receptor alpha-2 (Rattus norvegicus) (UniProt P22086+P19328+P22909); experiment: Displacement of [3H]RX 821002 from alpha2 receptor in rat cerebral cortex at 10 uM after 60 mins by scintillation counting; assay type: tissue-based
[21] = target: D(1B) dopamine receptor (Homo sapiens) (UniProt P21918); experiment: Displacement of [3H]SCH 23390 from human recombinant dopamine D5 receptor expressed in rat GH4 cells at 10 uM after 60 mins by scintillation counting; assay type: cell-based
[22] = organism: Rattus norvegicus; experiment: Displacement of [3H]batrachotoxinin from sodium channel site2 in rat cerebral cortex at 10 uM after 60 mins by scintillation counting; assay type: tissue-based
[23] = target: Sodium-dependent noradrenaline transporter (Homo sapiens) (UniProt P23975); experiment: Displacement of [3H]nisoxetine from human recombinant NET expressed in CHO cells at 10 uM after 120 mins by scintillation counting; assay type: cell-based
[24] = tested on: Hepatocyte; experiment: Metabolic stability in rat hepatocytes; assay type: ADME, cell-based
[25] = target: L-type calcium channel (verapamil binding site) (Rattus norvegicus, UniProt P22002+P27732+Q02485); experiment: Displacement of [3H]verapamil from verapamil binding site of L-type calcium channel in rat cerebral cortex at 10 uM after 120 mins by scintillation counting; assay type: tissue-based; conditions: probe [3H]verapamil, read-out: Activity
[26] = target: Platelet-derived growth factor receptor (Mus musculus) (UniProt P05622+P26618); experiment: Displacement of [125I]PDGF BB from PDGFR in BALB/c mouse 3T3 cells at 10 uM after 180 mins by scintillation counting; assay type: cell-based
[27] = Protein binding in rat plasma; assay type: ADME, cell-free; conditions: read-out: PPB (converted)
[28] = target: D(1A) dopamine receptor (Homo sapiens) (UniProt P21728); experiment: Displacement of [3H]SCH 23390 from human recombinant dopamine D1 receptor expressed in CHO cells at 10 uM after 60 mins by scintillation counting; assay type: cell-based
[29] = target: P2X purinoceptor 6 (Homo sapiens, UniProt O15547); experiment: Antagonist activity at P2X6 receptor; assay type: functional
[30] = target: Adenosine receptor A1 (Homo sapiens) (UniProt P30542); experiment: Displacement of [3H]DPCPX from human recombinant A1 receptor expressed in CHO cells at 10 uM after 60 mins by scintillation counting; assay type: cell-based
[31] = target: Melanocortin receptor 4 (Homo sapiens) (UniProt P32245); experiment: Displacement of [125I]NDP-a-MSH from human recombinant MC4 receptor expressed in CHO cells at 10 uM after 120 mins by scintillation counting; assay type: cell-based
[32] = organism: Rattus norvegicus; experiment: Displacement of [125I]a-dendrotoxin from potassium channel in rat cerebral cortex at 10 uM after 60 mins by scintillation counting; assay type: tissue-based
[33] = target: D(3) dopamine receptor (Homo sapiens) (UniProt P35462); experiment: Displacement of [3H]methyl-spiperone from human recombinant dopamine D3 receptor expressed in CHO cells at 10 uM after 60 mins by scintillation counting; assay type: cell-based

Chain of P2X purinoceptor 6 (O15547 whole entry): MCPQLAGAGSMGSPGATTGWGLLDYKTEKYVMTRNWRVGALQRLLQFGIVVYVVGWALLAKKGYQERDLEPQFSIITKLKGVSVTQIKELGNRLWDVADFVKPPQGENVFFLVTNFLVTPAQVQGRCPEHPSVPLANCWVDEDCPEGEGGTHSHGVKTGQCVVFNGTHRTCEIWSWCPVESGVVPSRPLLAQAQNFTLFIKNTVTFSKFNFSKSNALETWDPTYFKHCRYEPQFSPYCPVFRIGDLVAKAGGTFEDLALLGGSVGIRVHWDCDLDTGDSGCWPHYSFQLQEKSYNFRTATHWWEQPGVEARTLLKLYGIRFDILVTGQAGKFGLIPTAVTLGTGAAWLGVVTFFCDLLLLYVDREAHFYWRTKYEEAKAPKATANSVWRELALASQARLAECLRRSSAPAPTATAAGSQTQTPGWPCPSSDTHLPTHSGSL
Chain of Nociceptin receptor (Homo sapiens) (P41146 whole entry): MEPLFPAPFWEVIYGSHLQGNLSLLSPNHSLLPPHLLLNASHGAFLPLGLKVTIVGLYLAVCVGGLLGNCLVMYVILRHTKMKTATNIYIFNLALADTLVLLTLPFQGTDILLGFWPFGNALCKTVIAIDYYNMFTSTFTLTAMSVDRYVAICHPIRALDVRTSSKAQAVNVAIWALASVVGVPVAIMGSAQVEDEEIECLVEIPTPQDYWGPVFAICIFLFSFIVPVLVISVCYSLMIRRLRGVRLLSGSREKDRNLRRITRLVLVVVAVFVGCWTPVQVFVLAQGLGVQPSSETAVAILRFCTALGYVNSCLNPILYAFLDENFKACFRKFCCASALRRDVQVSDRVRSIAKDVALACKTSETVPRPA
Chain of D(2) dopamine receptor (Homo sapiens) (P14416 whole entry): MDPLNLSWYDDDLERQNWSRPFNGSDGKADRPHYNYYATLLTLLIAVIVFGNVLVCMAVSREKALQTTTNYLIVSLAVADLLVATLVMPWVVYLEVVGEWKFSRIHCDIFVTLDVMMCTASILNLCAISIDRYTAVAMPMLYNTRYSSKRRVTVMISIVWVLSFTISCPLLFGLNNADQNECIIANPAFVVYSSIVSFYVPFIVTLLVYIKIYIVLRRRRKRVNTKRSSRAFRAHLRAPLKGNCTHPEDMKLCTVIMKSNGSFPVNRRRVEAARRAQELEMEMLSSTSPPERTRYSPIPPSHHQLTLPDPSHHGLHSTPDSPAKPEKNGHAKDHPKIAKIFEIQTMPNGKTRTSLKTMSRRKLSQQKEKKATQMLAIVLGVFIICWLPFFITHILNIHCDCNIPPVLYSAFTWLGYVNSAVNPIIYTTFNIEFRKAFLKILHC
Chain of Type-2 angiotensin II receptor (Homo sapiens) (P50052 whole entry): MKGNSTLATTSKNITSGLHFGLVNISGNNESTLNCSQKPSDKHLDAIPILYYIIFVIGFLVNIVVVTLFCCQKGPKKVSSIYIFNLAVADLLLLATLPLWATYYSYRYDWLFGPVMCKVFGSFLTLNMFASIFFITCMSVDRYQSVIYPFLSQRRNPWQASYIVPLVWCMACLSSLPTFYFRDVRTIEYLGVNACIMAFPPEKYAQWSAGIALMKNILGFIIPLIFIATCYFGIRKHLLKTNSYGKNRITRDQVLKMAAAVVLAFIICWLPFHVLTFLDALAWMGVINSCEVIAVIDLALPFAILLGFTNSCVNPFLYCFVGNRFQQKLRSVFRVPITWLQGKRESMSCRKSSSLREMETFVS
Chain of Muscarinic acetylcholine receptor M4 (Homo sapiens) (P08173 whole entry): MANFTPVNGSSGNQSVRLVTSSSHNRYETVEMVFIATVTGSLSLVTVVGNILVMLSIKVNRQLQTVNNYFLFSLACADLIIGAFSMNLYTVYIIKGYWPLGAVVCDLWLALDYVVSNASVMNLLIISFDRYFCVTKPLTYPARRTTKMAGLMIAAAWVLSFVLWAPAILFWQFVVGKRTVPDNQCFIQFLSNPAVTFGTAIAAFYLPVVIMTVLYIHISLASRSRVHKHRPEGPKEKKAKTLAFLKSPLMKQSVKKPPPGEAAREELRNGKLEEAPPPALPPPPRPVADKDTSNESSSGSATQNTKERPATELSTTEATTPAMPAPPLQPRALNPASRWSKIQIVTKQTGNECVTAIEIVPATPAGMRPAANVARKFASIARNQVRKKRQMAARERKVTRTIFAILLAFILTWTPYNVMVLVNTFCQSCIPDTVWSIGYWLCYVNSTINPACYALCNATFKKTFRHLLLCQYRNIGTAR
Chain of Adenosine receptor A2a (Homo sapiens) (P29274 whole entry, looked up): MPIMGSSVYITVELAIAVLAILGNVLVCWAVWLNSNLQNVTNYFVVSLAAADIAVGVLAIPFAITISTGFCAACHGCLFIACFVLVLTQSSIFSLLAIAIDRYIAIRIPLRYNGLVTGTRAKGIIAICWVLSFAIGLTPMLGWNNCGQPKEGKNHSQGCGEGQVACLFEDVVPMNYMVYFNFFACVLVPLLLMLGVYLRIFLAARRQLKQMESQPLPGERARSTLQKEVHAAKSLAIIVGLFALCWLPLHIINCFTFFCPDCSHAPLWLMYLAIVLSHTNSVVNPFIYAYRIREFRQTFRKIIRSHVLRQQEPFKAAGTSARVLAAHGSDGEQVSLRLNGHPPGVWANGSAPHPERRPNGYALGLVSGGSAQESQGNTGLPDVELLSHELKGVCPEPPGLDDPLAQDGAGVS
Chain of D(1B) dopamine receptor (Homo sapiens) (P21918 whole entry): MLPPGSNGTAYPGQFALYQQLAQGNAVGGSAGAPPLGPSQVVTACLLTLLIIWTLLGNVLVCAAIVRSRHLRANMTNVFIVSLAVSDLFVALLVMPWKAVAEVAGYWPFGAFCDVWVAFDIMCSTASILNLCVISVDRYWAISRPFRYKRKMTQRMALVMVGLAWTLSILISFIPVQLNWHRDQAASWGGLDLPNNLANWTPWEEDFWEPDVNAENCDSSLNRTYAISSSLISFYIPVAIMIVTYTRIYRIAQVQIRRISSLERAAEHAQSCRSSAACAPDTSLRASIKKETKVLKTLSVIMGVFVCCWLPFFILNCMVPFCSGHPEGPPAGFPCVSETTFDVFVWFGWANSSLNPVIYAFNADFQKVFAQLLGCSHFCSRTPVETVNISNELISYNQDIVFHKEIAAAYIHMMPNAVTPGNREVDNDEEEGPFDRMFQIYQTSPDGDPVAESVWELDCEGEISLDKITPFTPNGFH
Chain of Melatonin receptor type 1A (Homo sapiens) (P48039 whole entry): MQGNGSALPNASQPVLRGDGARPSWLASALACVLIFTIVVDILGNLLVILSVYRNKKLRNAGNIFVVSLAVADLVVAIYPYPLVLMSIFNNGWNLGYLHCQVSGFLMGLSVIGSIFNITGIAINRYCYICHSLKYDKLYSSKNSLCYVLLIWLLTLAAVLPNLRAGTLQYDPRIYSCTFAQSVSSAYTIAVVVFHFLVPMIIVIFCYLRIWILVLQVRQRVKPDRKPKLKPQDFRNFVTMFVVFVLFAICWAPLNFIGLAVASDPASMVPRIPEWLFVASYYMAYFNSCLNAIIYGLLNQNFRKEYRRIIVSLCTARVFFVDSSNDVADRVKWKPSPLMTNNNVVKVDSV
Chain of Thromboxane A2 receptor (Homo sapiens) (P21731 whole entry): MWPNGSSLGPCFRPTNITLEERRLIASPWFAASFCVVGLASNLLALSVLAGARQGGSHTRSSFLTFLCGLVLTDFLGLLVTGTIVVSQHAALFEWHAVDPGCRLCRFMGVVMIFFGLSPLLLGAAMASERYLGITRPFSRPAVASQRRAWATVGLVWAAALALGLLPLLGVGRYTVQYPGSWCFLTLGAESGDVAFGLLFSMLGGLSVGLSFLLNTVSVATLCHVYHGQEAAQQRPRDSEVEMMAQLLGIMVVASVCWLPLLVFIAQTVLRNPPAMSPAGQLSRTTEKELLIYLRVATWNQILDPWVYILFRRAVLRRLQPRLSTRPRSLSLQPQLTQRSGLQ
Chain of Adenosine receptor A1 (Homo sapiens) (P30542 whole entry): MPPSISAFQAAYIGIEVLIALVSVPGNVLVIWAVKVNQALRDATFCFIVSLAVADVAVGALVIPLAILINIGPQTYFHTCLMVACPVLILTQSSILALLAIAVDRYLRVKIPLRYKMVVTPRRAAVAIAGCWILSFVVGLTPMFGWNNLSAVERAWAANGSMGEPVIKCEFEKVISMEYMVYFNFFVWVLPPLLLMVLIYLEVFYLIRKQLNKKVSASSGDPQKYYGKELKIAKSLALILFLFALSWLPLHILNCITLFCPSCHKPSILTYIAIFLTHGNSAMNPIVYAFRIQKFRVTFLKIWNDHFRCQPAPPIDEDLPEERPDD
Chain of Type-1 angiotensin II receptor (Homo sapiens) (P30556 whole entry): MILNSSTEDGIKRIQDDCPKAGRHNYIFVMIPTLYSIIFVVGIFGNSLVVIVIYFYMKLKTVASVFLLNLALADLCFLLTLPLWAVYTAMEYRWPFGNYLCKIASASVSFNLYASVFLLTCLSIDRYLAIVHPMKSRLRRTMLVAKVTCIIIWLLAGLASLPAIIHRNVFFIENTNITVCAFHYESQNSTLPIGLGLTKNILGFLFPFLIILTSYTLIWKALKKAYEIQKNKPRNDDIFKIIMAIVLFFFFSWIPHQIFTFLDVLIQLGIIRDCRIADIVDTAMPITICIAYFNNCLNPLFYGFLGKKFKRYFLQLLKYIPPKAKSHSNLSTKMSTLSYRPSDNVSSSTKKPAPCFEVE
Chain of Neurotensin receptor type 1 (Homo sapiens) (P30989 whole entry): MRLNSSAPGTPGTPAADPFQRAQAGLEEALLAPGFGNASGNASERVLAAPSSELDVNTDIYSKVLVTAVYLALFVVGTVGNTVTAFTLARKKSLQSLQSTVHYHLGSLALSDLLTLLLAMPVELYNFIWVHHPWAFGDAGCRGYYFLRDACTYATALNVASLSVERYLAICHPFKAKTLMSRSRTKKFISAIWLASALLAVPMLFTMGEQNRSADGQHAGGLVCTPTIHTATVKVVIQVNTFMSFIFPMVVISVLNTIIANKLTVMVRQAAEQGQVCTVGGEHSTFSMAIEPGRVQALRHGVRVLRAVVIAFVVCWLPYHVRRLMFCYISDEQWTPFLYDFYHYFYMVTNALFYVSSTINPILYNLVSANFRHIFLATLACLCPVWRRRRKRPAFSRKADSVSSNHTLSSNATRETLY

For `CC(=O)N1CCN(C[C@@H](C)NC(=O)c2cc3c(-c4ccccc4)nn(C)c3s2)CC1`, the Activity [1] was > 50%, the Activity [2] was > 50% and the Activity [3] was > 50%. The Activity [4] was > 50%, the Activity [5] was > 50% and the Activity [6] was > 50%. For the same compound, the Activity [7] was > 50%, the Activity [8] was > 50% and the Activity [9] was > 50%. The Activity [10] was > 50%, the microsomal CLint [11] was 43.7 µL/min/mg and the Activity [12] was > 50%. The Activity [13] was > 50%, the Activity [14] was > 50% and the Activity [15] was > 50%. The Activity [16] was > 50%, the Activity [17] was > 50% and the Activity [18] was > 50%. The Activity [19] was > 50%, the Activity [20] was > 50% and the Activity [21] was > 50%. For the same compound, the Activity [22] was > 50%, the Activity [23] was > 50% and the Stability [24] was 3.93 µL/min/mg. For the same compound, the inhibition at 2 h, 10 µM [25] was > 50%, the Activity [26] was > 50% and the fraction unbound [27] was 0.11. The Activity [28] was > 50%, the IC50 [29] was > 10 µM and the Activity [30] was > 50%. The Activity [31] was > 50%, the Activity [32] was > 50% and the Activity [33] was > 50%.

From ChEMBL document CHEMBL1159093, “Discovery and optimization of RO-85, a novel drug-like, potent, and selective P2X3 receptor antagonist” (Bioorg Med Chem Lett, 2010)
